Laboratory results published in US6632795B1, “Dolastatin-15 derivatives in combination with taxanes” (BASF Aktiengesellschaft, priority 1997, dated 2003).
Peptide text beside a SMILES is read from it.

Key:
[1] = tested on: PC-3 human prostate tumor xenograft; assay: PC-3 human tumor xenograft model; assay type: in vivo, human (xenograft in athymic nude mice); details: Q2Dx3, 5,12,19; for MTW d35 % T/C: mean tumor weight day 35; for R[…]: of 6 animals
Method: (§1) Human tumors from lung (LX-1), colon (CX-1) and prostate (PC-3) which had been grown in athymic nude mice were transplanted (xenografted) into new recipient mice, as is well known in the art. The transplanted tumor fragments were approximately 50 mg in size. The day of transplantation was designated as day 0. The combination therapy of the present invention was evaluated for anti-tumor efficacy following administration to the xenograft-bearing mice.
(§2) Combination therapy was accomplished by intravenous administration of both drugs. […] In other words, treatment consisted of 3 cycles, starting on days 5, 12 and 19 post tumor implantation. One cycle of treatment consisted of treatment every other day for a total of three times.
(§3) Tumor diameters and body weights were measured twice weekly. Tumor volumes were calculated using the diameters measured with Vernier calipers, and the formula:
(§4) (length×width^2)/2=mg of tumor weight
(§5) Mean tumor weights (MTW) were calculated for each treatment group, and T/C values determined for each group relative to the untreated control tumors.
(§6) Results are also presented as Net log Cell Kill and are calculated as follows: [formula]
(§7) T and C=The median days required for the control and treated tumors to reach a specified tumor size, in this instance 2000 mm^3.
(§8) Doubling Time=Time required for control tumors to double in size.
The Q2dx3; 5, 12 and 19 dosing regimen described above was used in this example. Paclitaxel was administered IP one hour after Compound (xvii) was administered IV. The optimal single dose of both paclitaxel and Compound (xvii) was not determined.

[2] = tested on: LX-1 human lung tumor xenograft; assay: LX-1 human tumor xenograft model; assay type: in vivo, human (xenograft in athymic nude mice); details: Q2Dx3, 5,12,19
Method: as §1, §2, §3, §4, §5, §6, §7, §8
(§9) The Q2dx3; 5, 12 and 19 dosing regimen described above was used in this example. Paclitaxel was administered IV one hour after Compound (xvii) was administered IV.

[3] = tested on: P388 tumor cells (murine lymphocytic leukemia cell line); assay: P388 in vivo tumor model (ascites, intraperitoneal implant); set-up: species or system mice; details: Q4Dx3, 1
Method: The P388 tumor model employs a murine lymphocytic leukemia cell line (See Schabel et al., Pharmac. Ther. A, 1:411-435). The P388 tumor cells used in this invention, were harvested from donor mice by peritoneal lavage at day 7 post transplant. 1×10^6 P388 tumor cells were then implanted intraperitoneally in a volume of 0.5 ml in mice.
A typical dosing regimen includes initiation of treatment approximately one day post transplant followed by treatment on days 5 and 9 post transplant. Generally the compounds of Formula I are administered intravenously (i.v.) and the paclitaxel, taxotere or modified taxane or taxoid analog is administered intraperitoneally (i.p.).
Therapeutic results of the combinations of the invention against P388 cells, are presented in terms of increase in lifespan reflected by the relative median survival time (MST) of treated (T) versus control (C) group (survival period for untreated mice is generally in the range of 11 to 13 days) and is represented as %T/C values. According to the National Cancer Institute guidelines a %T/C in the range or 128-190% indicates a drug with moderate to good activity. In addition, the Net log Cell Kill is used to compare efficacy of different schedules and combinations, and is calculated as follows: [formula]
Doubling Time=time required for control tumors to double once (0.4 days)
T and C=the median survival time (days) for the control (C) and treated (T) mice.
Duration of treatment with drug 0.332=Derived constant
1×10^6 P388 tumor cells were transplanted intraperitoneally in a volume of 0.5 ml in mice. Treatment was initiated approximately 1 day later followed by treatment on both day 5 and day 9, post transplant. Compound (xvii) was administered IV while paclitaxel was administered IP. […] The dosing was sequential with compound (xvii) being administered first followed by paclitaxel one hour later.

[4] = tested on: CX-1 human colon tumor xenograft; assay: CX-1 human tumor xenograft model; assay type: in vivo, human (xenograft in athymic nude mice); details: Q2Dx3, 5,12,19
Method: as §1, §2, §3, §4, §5, §6, §7, §8, §9

[5] = cited from earlier work
[6] = tested on: National Cancer Institute's P388 lymphocytic leukemia cell line; details: cited from earlier work
[7] = paclitaxel 10 mg/kg IV alone, of 6 animals

Compound: CC(C)[C@H](NC(=O)[C@H](C(C)C)N(C)C)C(=O)N(C)[C@H](C(=O)N1CCC[C@H]1C(=O)N1CCC[C@H]1C(=O)NCc1ccccc1)C(C)C [Compound (xvii)] (HELM PEPTIDE1{[CC(C)[C@@H](C(=O)[*:2])N(C)C].V.[meV].P.P.[c1ccc(CN[*:1])cc1]}$$$$V2.0)
- % Toxic Death ([1]; (xvii) 30 mg/kg IV alone): 33%
- % Toxic Death ([2]; (xvii) 7.5 mg/kg IV alone): 0%
- % Toxic Death ([2]; (xvii) 15 mg/kg IV alone): 0%
- % Toxic Death ([2]; (xvii) 25 mg/kg IV alone): 0%
- % Toxic Death ([3]; (xvii) 20 mg/kg IV alone): 0%
- % Toxic Death ([3]; (xvii) 40 mg/kg IV alone): 0%
- % Toxic Death ([3]; (xvii) 60 mg/kg IV alone): 0%
- % Toxic Death ([4]; (xvii) 25 mg/kg IV alone): 83%

Compound: CC(=O)O[C@H]1C(=O)[C@@]2(C)[C@H]([C@H](OC(=O)c3ccccc3)[C@]3(O)C[C@H](OC(=O)[C@H](O)[C@@H](NC(=O)c4ccccc4)c4ccccc4)C(C)=C1C3(C)C)[C@]1(OC(C)=O)CO[C@@H]1C[C@@H]2O [Paclitaxel]
- % Toxic Death ([1]; paclitaxel 10 mg/kg IP alone): 0%
- Net Log Cell Kill ([1]; paclitaxel 10 mg/kg IP alone): −0.672
- MTW d35 % T/C ([1]; paclitaxel 10 mg/kg IP alone): 55.12%
- R[…] ([1]; paclitaxel 10 mg/kg IP alone): 2
- % Toxic Death ([1]; paclitaxel 20 mg/kg IP alone): 0%
- Net Log Cell Kill ([1]; paclitaxel 20 mg/kg IP alone): 1.98
- MTW d35 % T/C ([1]; paclitaxel 20 mg/kg IP alone): 2.86%
- % Toxic Death ([1]; paclitaxel 30 mg/kg IP alone): 17%
- Net Log Cell Kill ([1]; paclitaxel 30 mg/kg IP alone): toxic
- MTW d35 % T/C ([1]; paclitaxel 30 mg/kg IP alone): 2%
- R[…] ([1]; paclitaxel 30 mg/kg IP alone): 5
- % Toxic Death ([2]; paclitaxel 10 mg/kg IV alone): 0%
- Net Log Cell Kill ([2]; paclitaxel 10 mg/kg IV alone): −0.374
- MTW d27 % T/C ([2]; paclitaxel 10 mg/kg IV alone, mean tumor weight day 27): 10.5%
- R[…] [2, 7]: 2
- % T/C (median survival time treated vs control) ([3]; paclitaxel 10 mg/kg IP alone): 183%
- % Toxic Death ([3]; paclitaxel 10 mg/kg IP alone): 0%
- Net Log Cell Kill ([3]; paclitaxel 10 mg/kg IP alone): 1.33
- % 60 Day Cures ([3]; paclitaxel 20 mg/kg IP alone): 4%
- % T/C (median survival time treated vs control) ([3]; paclitaxel 20 mg/kg IP alone): 175%
- % Toxic Death ([3]; paclitaxel 20 mg/kg IP alone): 0%
- Net Log Cell Kill ([3]; paclitaxel 20 mg/kg IP alone): 0.66
- % 60 Day Cures ([3]; paclitaxel 30 mg/kg IP alone): 3%
- % T/C (median survival time treated vs control) ([3]; paclitaxel 30 mg/kg IP alone): 204%
- % Toxic Death ([3]; paclitaxel 30 mg/kg IP alone): 8%
- Net Log Cell Kill ([3]; paclitaxel 30 mg/kg IP alone): 2.99
- Net Log Cell Kill ([4]; paclitaxel 10 mg/kg IV alone): −0.124
- MTW d55 % T/C ([4]; paclitaxel 10 mg/kg IV alone, mean tumor weight day 55): 38.12%
- R[…] [4, 7]: 2

Compound: Dolastatin-15
- aqueous solubility (in words) [5]: poor aqueous solubility
- inhibition of cell growth (in words) [6]: markedly inhibits the growth
